# In US20230337658A1, “COMPOSITIONS AND METHODS FOR ENHANCING SPERM CELL QUALITY” (ABS Global, Inc., priority 2022, published 2023):
# Where a name gives a salt, the structure may show the parent alone.
# What was measured:
# [1] = system: slaughterhouse oocytes fertilized with sexed semen; test: In vitro fertilization (IVF) with sexed semen: embryo cleavage and blastocyst formation; type: cell-based, bovine
# Source text: IVF Testable Unit Generation Design: This study utilizes sires from two breeds, Holstein and Jersey. The study design includes one ejaculate collection from 10 unique sires to generate sexed semen units in a split batch design with clofilium and a paired control.
# Final breed tally of the collections were 7 Holsteins and 3 Jersey sires. Ejaculates selected for use in this trial were processed following standard production procedures outlined in detail below. Insemination doses, freeze canes, and all associated documentation were blind labeled during the incoming quality check. This was to prevent technician bias on quality control assessments after freeze-thaw as well as during the IVF outcome quantitation assessments.
# After processing, the sexed semen was packaged and frozen during a regularly scheduled production freeze following standard operating procedures (SOPs). Within one week of unit generation, the outgoing quality control measurements were performed by a trained research technician. Post-thaw motile concentration and the presence/absence of bacterial contamination were completed. Insemination doses had to pass standard production outgoing quality control parameters to be utilized for the IVF trial.
# Each facility received the two treatment groups for each individual ejaculate. The two treatments from each split ejaculate were used concurrently to fertilize oocytes from the same pooled batch of slaughterhouse oocytes.
# Trained IVF technicians performed the outlined fertilizations. Day 2 cleavage rate, Day 7 and 8 blastocyst rates will be recorded, as well as polyspermy post-fertilization.
# Oocyte prep: Four well fertilization plates are prepared by filling all 4 wells with 400 μL of BO-IVF (MOFA Verona, Wis.) and equilibrated in a 37° C. 5% CO2 for at least 1 hour. […]
# Semen prep: Three insemination straws per treatment group are thawed at 37° C. for 45 seconds. […] A 5 μL sample aliquot is added to 95 μLs 4% NaCl to immobilize the cells, and cell concentration is quantified using a hemocytometer. Cells with visible membrane damage are not counted towards cell density calculations. […]
# [2] = system: sperm cells; test: Sexing cytometer metrics: eligible cells, skew; type: cell-based, bovine; details: 5 μM, n=10 sires
# Description: (§1) Sample Preparation for Sperm Sexing: A stained sample was prepared at room temperature that contained 200 M/mL sperm cells in 0.06 mg/mL Hoechst 33342 diluted to final volume in Stain TALP with Magnetic Beads with (+clofilium) or without (control) such that clofilium would be at a final concentration of 5 μM in the final stained sample volume. The sample was then incubated in a 37° C. water bath for 45 minutes. After 45 minutes Red Stain TALP was added to the stained sample in a 2:1 v/v ratio. The sample+Red TALP was then thoroughly mixed using inversion, filtered using tube top 20 μm Partec filters (Partec#04-0042-2315), and aliquoted into round bottom 5 mL tubes.
# Sexing Cytometer Metrics: The stained, filtered sample was then run on proprietary sexing cytometers. The sample throughput was adjusted to 23,000 cells/sec and the detection and kill lasers were focused. To confirm proper laser focus, kill count assessments were performed before collecting sex skewed sample. A successful kill count has a population that is ≥75% dead and ≥95% sliced with at least 200 cells being counted. […] After a successful kill count, a gate was placed to collect the X chromosome cells, which is the cell population with the brighter Hoechst 33342 fluorescence as measured with a 355 nm wavelength excitation laser. […]
# [3] = system: sperm cells; test: Pre-freeze and post-freeze motile cell quantification (CASA); type: cell-based, bovine; details: 5 μM, n=10 sires, compared to SOP
# Description: Sex Skewed Sample Collection and Processing: The sample was run to collect between 300 and 400 mL of sex skewed sample, the composition of which is approximately 17% TRIS A (Part 1) buffer, 80% sheath fluid, and 2% cell sample. The sample was collected in 50 mL conical tubes containing 5 mLs of TRIS A (Part 1), and each tube was filled to a max volume of 30 mL before being replaced. After the requisite total volume was collected, sexed sperm was centrifuged at room temperature at 2400×g for 10 minutes. The supernatant was aspirated and discarded to reach a 1 mL pellet volume. 144 μL of TRIS A (Part 1)/GTLS mixture containing 40 μM clofilium or no clofilium (control) was added to each pellet after resuspension. The tubes were then placed in beakers filled with 150 mL of room temperature water, to prevent cold shock, and were then transferred to a 4° C. cold room. […] The concentration of progressively motile cells was determined using the Hamilton Thorne IVOS II with […] […] After which 20 μLs of sample is added to 20 μLs of QC diluent, gently vortexed for 5 seconds, and read on the CASA fluorescent settings described above. The remainder of the straw volume is spread on a blood agar plate and left at 37° C. for 24 hours before bacterial colonies are counted. […]
# [4] = system: sexed semen samples; test: Cellular function of sexed semen samples (mitochondrial membrane potential, motility); type: cell-based; details: sexed semen samples treated
# [5] = system: sperm cells; test: Staining sperm cells with Hoechst dye before sexing; type: cell-based; details: present during staining with Hoechst dye
# Description: as §1
# Sexing Cytometer Metrics: The stained, filtered sample was then run on proprietary sexing cytometers. The sample throughput was adjusted to 23,000 cells/sec and the detection and kill lasers were focused. To confirm proper laser focus, kill count assessments were performed before collecting sex skewed sample. A successful kill count has a population that is ≥75% dead and ≥95% sliced with at least 200 cells being counted. If an instrument could not achieve the above metrics, the instrument was not used to collect sex skewed semen. After a successful kill count, a gate was placed to collect the X chromosome cells, which is the cell population with the brighter Hoechst 33342 fluorescence as measured with a 355 nm wavelength excitation laser. Cytometer performance metrics were collected 15 minutes after instrument set up, and 15 minutes after the placement of the last sample collection tube, including the height of the Y-peak, the height of the X-peak, the height of the trough from the histogram of events per emitted fluorescent intensity, gated %, and dead %.
structure (smiles),measurement,setting,value
"CCCCCCC[N+](CC)(CC)CCCCc1ccc(Cl)cc1 [clofilium tosylate, N-[4-(4-chlorophenyl)butyl]-N,N-diethylheptan-1-aminium]",percentage of normalized cleaved embryos at day 2,"[1]; 5 μM throughout the sexing process, N=2 sires, normalized to the control process, FIG. 3A",improvement
same,percentage of day 7 blastocysts,"[1]; 5 μM throughout the sexing process, N=2 sires, normalized to the control process, FIG. 3B",improvement
same,"fertility of semen, as assessed by embryo cleavage and blastocyst formation post-IVF",[1]; included in the sexing process,improves fertility
same,Skew (percentage of X-chromosome bearing sperm cells),[2],remains unaffected
same,"percentage of eligible cells (live, sexed X chromosome bearing cells)","[2]; compared to SOP at start and end of the collection process, FIG. 4",increased eligible percent
same,number of straws obtained from a single sample catch tube (pre-freeze motile cell quantification),"[3]; post instrument processing, FIG. 5",improvement
same,motile cells (in millions) per insemination dose,"[3]; post-freeze, FIGS. 6A, 6B",more motile cells
same,"cellular function, as measured by mitochondrial membrane potential",[4],increased cellular function
same,"cellular function, as measured by motility",[4],increased cellular function
same,eligibility (number of cells eligible for sexing),[5],increase eligibility
same,resolution (separation of X- and Y-chromosome cell peaks in a histogram),[5],increase resolution
same,sex skew,[5],increase
same,time required to achieve staining saturation,[5],reduce the time
